In the supplement of paper PMC10307832 one finds relative viability data, which are given here for four cell lines.

Test in all cases: relative viability (nuclei count vs DMSO), 5 days (fraction); higher = more cells survive
Compound in the experiment “Carboplatin + Bortezomib”: C1CC(C1)(C(=O)O)C(=O)O.[NH2-].[NH2-].[Pt+2] [Carboplatin] + CC(C)C[C@H](NC(=O)[C@H](Cc1ccccc1)NC(=O)c1cnccn1)B(O)O [Bortezomib] (partner 0.002 µM)
In outline:
(§1)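 Lung cancer cell lines in 1536-well plates were dosed by pin tool the day after seeding, either with one drug alone or with a fixed anchor-drug dose plus five library-drug doses (not always all listed) in √10 steps. After 5 days, cells were fixed and their nuclei stained in one step (final 0.05% Triton X-100, 1% formaldehyde, 1 ug/ml Hoechst), then counted on 4× images. Relative viability is the nuclei count in treated wells divided by that in vehicle wells. Values are medians of duplicate plates.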

Compound in the experiment “Carboplatin + Foretinib”: C1CC(C1)(C(=O)O)C(=O)O.[NH2-].[NH2-].[Pt+2] [Carboplatin] + COc1cc2c(Oc3ccc(NC(=O)C4(C(=O)Nc5ccc(F)cc5)CC4)cc3F)ccnc2cc1OCCCN1CCOCC1 [Foretinib] (partner 0.25 µM)
The procedure, abridged: as §1

Compound in the experiment “GSK126 + Tozasertib”: CC[C@H](C)N1C=C(C2=C(C=C(C=C21)C3=CN=C(C=C3)N4CCNCC4)C(=O)NCC5=C(C=C(NC5=O)C)C)C [GSK126] + Cc1cc(Nc2cc(N3CCN(C)CC3)nc(Sc3ccc(NC(=O)C4CC4)cc3)n2)n[nH]1 [Tozasertib] (partner 0.1 µM)
The procedure, abridged:
as §1

Compound in the experiment “MLN4924 + Vorinostat”: NS(=O)(=O)OC[C@@H]1C[C@@H](n2ccc3c(N[C@H]4CCc5ccccc54)ncnc32)C[C@@H]1O [MLN4924] + O=C(CCCCCCC(=O)Nc1ccccc1)NO [Vorinostat] (partner 1 µM)
In outline: as §1

On to NCI-H650, for which the relative viability is 0.966 in the experiment with Carboplatin + Bortezomib (first compound 0.08 µM); 0.852 in the experiment with Carboplatin + Bortezomib (first compound 0.253 µM); 0.868 with Carboplatin + Bortezomib (first compound 0.8 µM); 0.764 with Carboplatin + Bortezomib (first compound 2.53 µM); 0.388 with Carboplatin + Bortezomib (first compound 8 µM); 1.01 in the experiment with Carboplatin + Foretinib (first compound 0.08 µM). The relative viability with Carboplatin + Foretinib (first compound 0.253 µM) worked out at 1.14; with Carboplatin + Foretinib (first compound 0.8 µM), 0.941; with Carboplatin + Foretinib (first compound 2.53 µM), 0.91; in the experiment with Carboplatin + Foretinib (first compound 8 µM), 0.614; in the experiment with GSK126 + Tozasertib (first compound 0.08 µM) it was 0.783; in the experiment with GSK126 + Tozasertib (first compound 0.253 µM), 0.744. In addition, the relative viability in the experiment with GSK126 + Tozasertib (first compound 0.8 µM) amounted to 0.702; with GSK126 + Tozasertib (first compound 2.53 µM), 0.691; with GSK126 + Tozasertib (first compound 8 µM), 0.717; with MLN4924 + Vorinostat (first compound 0.04 µM), 0.446; in the experiment with MLN4924 + Vorinostat (first compound 0.1265 µM), 0.306; in the experiment with MLN4924 + Vorinostat (first compound 0.4 µM) it was 0.169. Also, the relative viability with MLN4924 + Vorinostat (first compound 1.265 µM) worked out at 0.126; in the experiment with MLN4924 + Vorinostat (first compound 4 µM) it was 0.143.

Take NCI-H661: the relative viability in the experiment with Carboplatin + Bortezomib (first compound 0.08 µM) turned out to be 0.915; with Carboplatin + Bortezomib (first compound 0.253 µM) it was 0.856; with Carboplatin + Bortezomib (first compound 0.8 µM) it was 0.716; with Carboplatin + Bortezomib (first compound 2.53 µM), 0.613; in the experiment with Carboplatin + Bortezomib (first compound 8 µM), 0.763; with Carboplatin + Foretinib (first compound 0.08 µM), 1.01. The relative viability with Carboplatin + Foretinib (first compound 0.253 µM) is 0.982; with Carboplatin + Foretinib (first compound 0.8 µM), 0.984; with Carboplatin + Foretinib (first compound 2.53 µM), 1; in the experiment with Carboplatin + Foretinib (first compound 8 µM) it was 0.842; with GSK126 + Tozasertib (first compound 0.08 µM) it was 0.355; with GSK126 + Tozasertib (first compound 0.253 µM) it was 0.336. The relative viability in the experiment with GSK126 + Tozasertib (first compound 0.8 µM) amounted to 0.344; in the experiment with GSK126 + Tozasertib (first compound 2.53 µM), 0.343; with GSK126 + Tozasertib (first compound 8 µM), 0.332; with MLN4924 + Vorinostat (first compound 0.04 µM), 0.601; with MLN4924 + Vorinostat (first compound 0.1265 µM) it was 0.619; with MLN4924 + Vorinostat (first compound 0.4 µM), 0.389. Also, the values for the relative viability with MLN4924 + Vorinostat (first compound 1.265 µM) and with MLN4924 + Vorinostat (first compound 4 µM) were 0.317 and 0.382, respectively.

As for NCI-H727, the relative viability in the experiment with Carboplatin + Bortezomib (first compound 0.08 µM) stood at 1.08; in the experiment with Carboplatin + Bortezomib (first compound 0.253 µM), 1.01; with Carboplatin + Bortezomib (first compound 0.8 µM), 0.88; in the experiment with Carboplatin + Bortezomib (first compound 2.53 µM), 0.774; with Carboplatin + Bortezomib (first compound 8 µM), 0.471; in the experiment with Carboplatin + Foretinib (first compound 0.08 µM), 1.1. Moreover, the relative viability with Carboplatin + Foretinib (first compound 0.253 µM) is 0.967; with Carboplatin + Foretinib (first compound 0.8 µM), 0.9; with Carboplatin + Foretinib (first compound 2.53 µM) it was 0.792; in the experiment with Carboplatin + Foretinib (first compound 8 µM), 0.637; in the experiment with GSK126 + Tozasertib (first compound 0.08 µM), 0.633; with GSK126 + Tozasertib (first compound 0.253 µM), 0.648. The relative viability with GSK126 + Tozasertib (first compound 0.8 µM) amounted to 0.586; with GSK126 + Tozasertib (first compound 2.53 µM), 0.676; in the experiment with GSK126 + Tozasertib (first compound 8 µM), 0.438; with MLN4924 + Vorinostat (first compound 0.04 µM) it was 1.17; with MLN4924 + Vorinostat (first compound 0.1265 µM), 0.847; with MLN4924 + Vorinostat (first compound 0.4 µM), 0.819. Moreover, the relative viability worked out at 0.477 with MLN4924 + Vorinostat (first compound 1.265 µM) and 0.451 with MLN4924 + Vorinostat (first compound 4 µM).

In the case of NCI-H838, the relative viability with Carboplatin + Bortezomib (first compound 0.08 µM) came out at 1.06; with Carboplatin + Bortezomib (first compound 0.253 µM) it was 0.858; with Carboplatin + Bortezomib (first compound 0.8 µM), 0.869; with Carboplatin + Bortezomib (first compound 2.53 µM), 0.835; in the experiment with Carboplatin + Bortezomib (first compound 8 µM), 0.82; with Carboplatin + Foretinib (first compound 0.08 µM) it was 1.16. The relative viability in the experiment with Carboplatin + Foretinib (first compound 0.253 µM) came out at 1.06; with Carboplatin + Foretinib (first compound 0.8 µM), 0.934; in the experiment with Carboplatin + Foretinib (first compound 2.53 µM), 0.931; with Carboplatin + Foretinib (first compound 8 µM), 0.669; with GSK126 + Tozasertib (first compound 0.08 µM), 0.293; in the experiment with GSK126 + Tozasertib (first compound 0.253 µM), 0.269. Also, the relative viability with GSK126 + Tozasertib (first compound 0.8 µM) stood at 0.255; in the experiment with GSK126 + Tozasertib (first compound 2.53 µM) it was 0.261; with GSK126 + Tozasertib (first compound 8 µM), 0.242; with MLN4924 + Vorinostat (first compound 0.04 µM) it was 0.631; with MLN4924 + Vorinostat (first compound 0.1265 µM) it was 0.4; in the experiment with MLN4924 + Vorinostat (first compound 0.4 µM) it was 0.284. The relative viability in the experiment with MLN4924 + Vorinostat (first compound 1.265 µM) was 0.168; with MLN4924 + Vorinostat (first compound 4 µM) it was 0.151.
